According to patent publication US20260028334A1, “N-(3-(BENZO[B]THIOPHENE-2-CARBOXAMIDO)-PHENYL)-2,3-DIHYDROBENZO[B][1,4]DIOXINE-6-CARBOXAMIDE DERIVATIVES AND RELATED COMPOUNDS AS LACTATE/ATP PRODUCTION INHIBITORS FOR THE TREATMENT OF CANCER” (WMT Aktiengesellschaft, priority 2022, published 2026):

How the values were obtained:
Type in all cases: cell-based
[1] = tested on: HeLa, 4T1, LLC1, A549, MDA-MB-231 and MiaPaCa2 cells; assay: Lactate production inhibition assay (FIG. 2); conditions: 48 hours treatment, 1.5 to 10000 nM
Source text: (§1) Recombinant Lactate Dehydrogenase A (LDHA) was used to convert lactate in tissue culture supernatants to pyruvate, with the concomitant reduction of NAD^+ to NADH. The electron acceptor 1-methoxyphenazine methosulfate (MPMS) was then reduced by the generated NADH, thereby regenerating NAD+. Reduced 1-methoxyphenazine methosulfate is used in turn to reduce Water Soluble Tetrazolium 8 (WST8) to an orange WST8 formazan product. The assay is adapted from the publication “Application of WST-8 based colorimetric NAD(P)H detection for quantitative dehydrogenase assays” described in Chamchoy et al., BMC Biochemistry (2019) 20(1):4.
Cells were plated at 4,000 per well in 96-well plate in a medium of high glucose DMEM (PAN) supplemented with 10% FBS (PAN), 2 mM glutamine-alanine (PAN), 2 mM pyruvate (Sigma) and 10 mL/L penicillin-streptomycin (PAN) and grown at 37° C. in 0.5% O2, 5% CO2 and 75% humidity. For hypoxia, cells were grown and treated in the Whitley H35 Hypoxystation (Don Whitley Scientific) at 37° C. in 0.5% O2, 5% CO2 and 75% humidity. […] Thereafter, 80 μl of substrate mix is added to 20 μl of diluted cell supernatant in a 96-well flat-bottomed plate and the absorbance at 460 nm determined at one minute intervals over a 30 minute period. […]

[2] = tested on: ER stress markers CHAC and CHOP/DDIT3; assay: Gene expression analysis by qPCR (FIG. 8E-8AB); conditions: Panc02 and SKOV3 cells, 10 nM, 0.5, 1, 2 and 4 hours
Method: (§2) Cells were plated at 40,000 cells per ml in medium of high glucose DMEM (PAN) supplemented with 10% FBS (PAN), 2 mM glutamine-alanine (PAN), 2 mM pyruvate (Sigma) and 10 mL/L penicillin-streptomycin (PAN), and grown at 37° C. in 0.5% O2, 5% CO2 and 75% humidity. Next day, cells were induced with test compounds (FIG. 3: compounds of example 3/16, 3/8, 10 at 10 nM; FIG. 8E-8AB: compounds of example 3/16, 3/8, 10, 3/19, 30 and 30/2 at 10 nM) 0.5, 1, 2 and 4 hours, as well as with vehicle (DMSO) only. After this time, the cells were lysed according to protocol (Promega, SV 96 Total RNA Isolation System, #Z3505). After transferring the lysate to a 96-well-RNA binding plate, RNA was isolated and put at approx. 1 μg into cDNA synthesis using LunaScript RT SuperMix Kit (NEB, #E3010). The resulting cDNA was diluted 1:5 and used for qPCR Analysis (Taqman). Luna Universal Probe qPCR Master Mix (NEB, #M3004) is used as 2× reaction mix to which the diluted cDNA is added. The qPCR analysis was performed using QuantStudio™ 6 Flex real-time PCR systems (Thermo Fisher Scientific).
(§3) A set of primers plus probe for each gene of interest was purchased at IDT (Integrated DNA Technologies).

lactate production = assay: Lactate production inhibition assay; conditions: summary of Table 1
Source text: as §1
Cells were plated at 4,000 per well in 96-well plate in a medium of high glucose DMEM (PAN) supplemented with 10% FBS (PAN), 2 mM glutamine-alanine (PAN), 2 mM pyruvate (Sigma) and 10 mL/L penicillin-streptomycin (PAN) and grown at 37° C. in 0.5% O2, 5% CO2 and 75% humidity. For hypoxia, cells were grown and treated in the Whitley H35 Hypoxystation (Don Whitley Scientific) at 37° C. in 0.5% O2, 5% CO2 and 75% humidity. The next day, cells were induced with test compounds (FIG. 2: compounds of examples 3/16, 3/8, 10 at 10000, 3333, 1111, 370, 123, 41, 14, 5 and 1.5 nM; FIG. 7: compounds of examples 3/16, 3/8, 10 at 41, 14, 4.6 nM and Phenformin at 100, 50, 25, 12.5, 6.25 μM; FIGS. 8C and 8D: compounds of example 3/16, 3/8, 10, 3/19, 30 and 30/2 at 10000, 3333, 1111, 370, 123, 41, 14, 5 and 1.5 nM), as well as with vehicle (DMSO) only, for 48 hours. After this time, the medium was removed from the cells to measure extracellular lactate. To detect extracellular lactate, cell supernatants are diluted 1:5 in assay buffer (0.2 M tris, pH 8.2) by adding 10 μl cell supernatant+40 μl buffer in a 96-well plate. Assay substrate mix is prepared by adding NAD+ (3.75 mM), WST-8 (0.9 mM), MPMS (10 mM) and recombinant LDHA, expressed in E. coli as an N-terminal hexahistidine tagged fusion protein, is added to a final concentration of 0.8 μg/ml in assay buffer. Thereafter, 80 μl of substrate mix is added to 20 μl of diluted cell supernatant in a 96-well flat-bottomed plate and the absorbance at 460 nm determined at one minute intervals over a 30 minute period. A standard curve of known lactate concentrations of 10, 8, 6, 4, 1, 0.5 and 0.25 mM was constructed for each assay plate.

[3] = tested on: ER stress markers CHAC, CHOP/DDIT3, XBP1 and SLC7A11; assay: Gene expression analysis by qPCR (FIG. 3); conditions: HeLa, 4T1, LLC1, A549, MDA-MB-231 and MiaPaCa2 cells, 10 nM, 0.5, 1, 2 and 4 hours
Method: as §2, §3

SMILES | lactate production level [1] | ER stress markers CHAC and CHOP/DDIT3 [2] | activity in inhibiting production of ATP and/or lactate (lactate production) | ER stress markers CHAC, CHOP/DDIT3, XBP1 and SLC7A11 [3]
O=C(Nc1ccc(F)c(NC(=O)c2cc3ccc(OCCCN4CCCC4)cc3s2)c1)c1ccc2c(c1)OCCO2 [3/8] | dose-dependent reduction | time-dependent upregulation | high activity | time-dependent upregulation
Cc1ccc(NC(=O)c2ccc3c(c2)OCCO3)cc1NC(=O)c1cc2cccnc2s1 [3/16] | dose-dependent reduction | time-dependent upregulation | high activity | time-dependent upregulation
